Experimental findings from US12390437B2, “Itaconic acid derivatives and uses thereof intreating an inflammatory disease or a disease associated with an undesirable immune response” (Sitryx Therapeutics Limited, priority 2019, dated 2025) are described below.

Data set [1] is described as follows: Mouse pharmacokinetic study, intravenous dosing. The following applies: male, C57BL/6, mouse, iv, plasma, 10 mg/kg i.v., read-out: Parent compound concentration following intravenous administration. Type of data set: in vivo. The essentials:
(§1)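 Oral arm: 100 mg/kg gavage in 5% DMSO with 0.5% HPMC/0.1% Tween 80, blood from 5 min to 24 h. Intravenous arm: 10 mg/kg tail-vein injection in 10% DMSO with HP-β-CD, blood from 3 min to 8 h. Male C57BL/6 mice; LC-MS/MS on plasma.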

The nature of data set [2]: Mouse pharmacokinetic study, oral administration. In kind it is in vivo. The following applies: male, C57BL/6, mouse, plasma, po, 100 mg/kg, plasma, male C57BL/6 mice, oral gavage 100 mg/kg; for concentration at 0.083 h: read-out: Parent compound concentrations following oral administration, Time 0.083 h; for concentration at 0.25 h: read-out: Parent compound concentrations following oral administration, Time 0.25 h; for concentration at 0.5 h: read-out: Parent compound concentrations following oral administration, Time 0.5 h; for concentration at 1 h: read-out: Parent compound concentrations following oral administration, Time 1 h; for concentration at 2 h: read-out: Parent compound concentrations following oral administration, Time 2 h; for concentration at 4 h: read-out: Parent compound concentrations following oral administration, Time 4 h; for concentration at 6 h: read-out: Parent compound concentrations following oral administration, Time 6 h; for concentration at 8 h: read-out: Parent compound concentrations following oral administration, Time 8 h; for concentration at 24 h: read-out: Parent compound concentrations following oral administration, Time 24 h. The essentials: as §1

Data set [3] in a line: Hepatocyte stability assay (mouse). In kind it is in vitro ADME. The following applies: cryopreserved hepatocytes, 10 μM compound, 0.5×10^6 cells/mL, 60 minutes, read-out: T½. The essentials:
(§2)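 Cryopreserved hepatocytes (viability >70%), 0.5×10^6 cells/mL in Leibovitz buffer, incubated at 37 °C with 10 μM compound (0.1% DMSO), duplicates; buffer-only incubations as negative control. Samples at 0-60 min quenched in acetonitrile, parent measured by LC-MS/MS; half-life and Clint (μL min^−1 10^−6 cells) from ln % remaining versus time slope.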

Another data set concerns hepatocytes. The data set is described as follows: Hepatocyte stability assay (mouse). In kind it is in vitro ADME. The following applies: 10 μM compound, 0.5×10^6 cells/mL, 60 minutes. The essentials:
as §2

A value given as a limit tells only on which side of the number the result lay.

Consider `C=C(CC(=O)O[C@@H](C)CCCCCC)C(=O)OCc1nn[nH]n1` [Example 164, (S)-1-(2H-tetrazol-5-yl)methyl 4-octan-2-yl 2-methylenesuccinate], for which, in data set [1], the concentration at 0.05 h worked out at 6690 ng/mL, the concentration at 0.133 h stood at 1250 ng/mL, the concentration at 0.25 h worked out at 534 ng/mL and the concentration at 0.5 h came out at 211 ng/mL. Further, in data set [1], the concentration at 1 h was determined as 18 ng/mL, the concentration at 2 h is under 4 ng/mL, the concentration at 4 h is under 4 ng/mL and the concentration at 6 h is under 4 ng/mL. Besides, the concentration at 8 h in data set [1] is under 4 ng/mL. Besides, in data set [2], the concentration at 0.083 h was found to be 3790 ng/mL, the concentration at 0.25 h is 2970 ng/mL, the concentration at 0.5 h worked out at 1860 ng/mL and the concentration at 1 h stood at 968 ng/mL. Moreover, in data set [2], the concentration at 2 h stood at 585 ng/mL, the concentration at 4 h is 381 ng/mL, the concentration at 6 h is 135 ng/mL and the concentration at 8 h was found to be 181 ng/mL. Besides, in data set [2], the concentration at 24 h is under 4 ng/mL. Further, in data set [3], the half-life at 10 μM was 5 min. Also, the “CIint (μL min^−1 10^−6 cells)” value in the data set on hepatocytes worked out at 259 μL min^−1 10^−6 cells.
With `C=C(CC(=O)OC(C)(C)CCCCC)C(=O)OCC(=O)O` [Example 193, 2-((2-methylene-4-((2-methylheptan-2-yl)oxy)-4-oxobutanoyl)oxy)acetic acid], in data set [1], the concentration at 0.05 h stood at 28800 ng/mL, the concentration at 0.133 h was 10700 ng/mL, the concentration at 0.25 h was found to be 4040 ng/mL and the concentration at 0.5 h came to 1450 ng/mL. In data set [1], the concentration at 1 h was determined as 134 ng/mL, the concentration at 2 h was found to be 16 ng/mL, the concentration at 4 h was found to be 4.1 ng/mL and the concentration at 6 h is under 4 ng/mL. In addition, the concentration at 8 h in data set [1] was under 4 ng/mL. Moreover, in data set [2], the concentration at 0.083 h worked out at 52900 ng/mL, the concentration at 0.25 h was found to be 45600 ng/mL, the concentration at 0.5 h was 31500 ng/mL and the concentration at 1 h is 8930 ng/mL. Moreover, in data set [2], the concentration at 2 h came out at 2120 ng/mL, the concentration at 4 h was 920 ng/mL, the concentration at 6 h stood at 55 ng/mL and the concentration at 8 h was found to be 19 ng/mL. Besides, in data set [2], the concentration at 24 h is 5.6 ng/mL. The half-life at 10 μM in data set [3] was 22 min. In addition, the “CIint (μL min^−1 10^−6 cells)” value with hepatocytes is 79 μL min^−1 10^−6 cells.
For `C=C(CC(=O)OC1CCCCCCC1)C(=O)OCc1nnn[nH]1` [Example 134, 1-((1H-tetrazol-5-yl)methyl) 4-cyclooctyl 2-methylenesuccinate], in data set [1], the concentration at 0.05 h came out at 31600 ng/mL, the concentration at 0.133 h was found to be 7760 ng/mL, the concentration at 0.25 h is 2890 ng/mL and the concentration at 0.5 h was 4300 ng/mL. For the same molecule, in data set [1], the concentration at 1 h was 74 ng/mL, the concentration at 2 h stood at 12 ng/mL, the concentration at 4 h stood at 11 ng/mL and the concentration at 6 h is 1.4 ng/mL. For the same molecule, in data set [1], the concentration at 8 h turned out to be 1.7 ng/mL. Moreover, in data set [2], the concentration at 0.083 h is 17500 ng/mL, the concentration at 0.25 h amounted to 3500 ng/mL, the concentration at 0.5 h is 7970 ng/mL and the concentration at 1 h was 1980 ng/mL. Further, in data set [2], the concentration at 2 h came out at 856 ng/mL, the concentration at 4 h worked out at 636 ng/mL, the concentration at 6 h was determined as 94 ng/mL and the concentration at 8 h is 62 ng/mL. In addition, the concentration at 24 h in data set [2] was determined as 7 ng/mL. Moreover, in data set [3], the half-life at 10 μM turned out to be 7 min. Also, the “CIint (μL min^−1 10^−6 cells)” value with hepatocytes came out at 256 μL min^−1 10^−6 cells.
Regarding `C=C(CC(=O)OC1CCCCC1)C(=O)OCc1nnn[nH]1` [Example 125, 1-((2H-tetrazol-5-yl)methyl) 4-cyclohexyl 2-methylenesuccinate], in data set [1], the concentration at 0.05 h amounted to 11900 ng/mL, the concentration at 0.133 h came to 3870 ng/mL, the concentration at 0.25 h was found to be 1070 ng/mL and the concentration at 0.5 h stood at 346 ng/mL. Besides, in data set [1], the concentration at 1 h is 38 ng/mL, the concentration at 2 h came to 3 ng/mL, the concentration at 4 h is under 0.8 ng/mL and the concentration at 6 h was under 0.8 ng/mL. Besides, the concentration at 8 h in data set [1] was under 0.8 ng/mL. In addition, in data set [2], the concentration at 0.083 h amounted to 9360 ng/mL, the concentration at 0.25 h amounted to 4360 ng/mL, the concentration at 0.5 h was 2650 ng/mL and the concentration at 1 h amounted to 1430 ng/mL. In addition, in data set [2], the concentration at 2 h is 785 ng/mL, the concentration at 4 h is 427 ng/mL, the concentration at 6 h turned out to be 163 ng/mL and the concentration at 8 h stood at 15 ng/mL. The concentration at 24 h in data set [2] is under 0.8 ng/mL. Further, the half-life at 10 μM in data set [3] worked out at 16 min. Also, the “CIint (μL min^−1 10^−6 cells)” value in the data set with hepatocytes amounted to 101 μL min^−1 10^−6 cells.
In the case of `C=C(CC(=O)OC(C)(C)CCCCCC)C(=O)OCC(=O)O` [Example 192, 2-((2-methylene-4-((2-methyloctan-2-yl)oxy)-4-oxobutanoyl)oxy)acetic acid], in data set [1], the concentration at 0.05 h was 36600 ng/mL, the concentration at 0.133 h came out at 21400 ng/mL, the concentration at 0.25 h is 11300 ng/mL and the concentration at 0.5 h was 2910 ng/mL. Moreover, in data set [1], the concentration at 1 h was found to be 400 ng/mL, the concentration at 2 h was 86 ng/mL, the concentration at 4 h stood at 26 ng/mL and the concentration at 6 h is under 4 ng/mL. Further, the concentration at 8 h in data set [1] was under 4 ng/mL. Further, in data set [2], the concentration at 0.083 h was determined as 47000 ng/mL, the concentration at 0.25 h is 60700 ng/mL, the concentration at 0.5 h came to 37900 ng/mL and the concentration at 1 h is 25200 ng/mL. In data set [2], the concentration at 2 h stood at 8740 ng/mL, the concentration at 4 h stood at 5440 ng/mL, the concentration at 6 h came out at 79 ng/mL and the concentration at 8 h amounted to 41 ng/mL. Further, the concentration at 24 h in data set [2] turned out to be 6.6 ng/mL. The half-life at 10 μM in data set [3] was 5 min. In addition, the “CIint (μL min^−1 10^−6 cells)” value with hepatocytes came to 350 μL min^−1 10^−6 cells.
On to `C=C(CC(=O)O[C@@H](CC)CCCCC)C(=O)OCC(=O)O` [Example 170, (S)-2-(2-methylene-4-(octan-3-yloxy)-4-oxobutanoyloxy)acetic acid], for which, in data set [1], the concentration at 0.05 h was 37200 ng/mL, the concentration at 0.133 h was determined as 21900 ng/mL, the concentration at 0.25 h amounted to 8930 ng/mL and the concentration at 0.5 h came out at 1660 ng/mL. For the same molecule, in data set [1], the concentration at 1 h was 476 ng/mL, the concentration at 2 h is 66 ng/mL, the concentration at 4 h worked out at 12 ng/mL and the concentration at 6 h was under 4 ng/mL. The concentration at 8 h in data set [1] is under 4 ng/mL. In addition, in data set [2], the concentration at 0.083 h worked out at 55000 ng/mL, the concentration at 0.25 h was found to be 38400 ng/mL, the concentration at 0.5 h is 40600 ng/mL and the concentration at 1 h worked out at 10100 ng/mL. In addition, in data set [2], the concentration at 2 h is 4420 ng/mL, the concentration at 4 h is 4400 ng/mL, the concentration at 6 h was determined as 441 ng/mL and the concentration at 8 h came to 25 ng/mL. Further, in data set [2], the concentration at 24 h came to 8.1 ng/mL. For the same molecule, the half-life at 10 μM in data set [3] was found to be 20 min. Further, in the data set on hepatocytes, the “CIint (μL min^−1 10^−6 cells)” value came out at 64 μL min^−1 10^−6 cells.
